Source: patent US7214690B2, “Tricyclic quinolinone and tricyclic quinoline androgen receptor modulator compounds and methods” (Ligand Pharmaceuticals Incorporated, priority 2001, dated 2007)

Legend:
Format in all cases: cell-based
PR = biological target: T1, PR (Homo sapiens, UniProt P06401); experiment: co-transfection assay, PR
T1 construct: expressed in transfected cells; host or cells: background cell substantially devoid of endogenous IRs (CV-1 described for the co-transfection assay)
T1 sequence (P06401 1-933): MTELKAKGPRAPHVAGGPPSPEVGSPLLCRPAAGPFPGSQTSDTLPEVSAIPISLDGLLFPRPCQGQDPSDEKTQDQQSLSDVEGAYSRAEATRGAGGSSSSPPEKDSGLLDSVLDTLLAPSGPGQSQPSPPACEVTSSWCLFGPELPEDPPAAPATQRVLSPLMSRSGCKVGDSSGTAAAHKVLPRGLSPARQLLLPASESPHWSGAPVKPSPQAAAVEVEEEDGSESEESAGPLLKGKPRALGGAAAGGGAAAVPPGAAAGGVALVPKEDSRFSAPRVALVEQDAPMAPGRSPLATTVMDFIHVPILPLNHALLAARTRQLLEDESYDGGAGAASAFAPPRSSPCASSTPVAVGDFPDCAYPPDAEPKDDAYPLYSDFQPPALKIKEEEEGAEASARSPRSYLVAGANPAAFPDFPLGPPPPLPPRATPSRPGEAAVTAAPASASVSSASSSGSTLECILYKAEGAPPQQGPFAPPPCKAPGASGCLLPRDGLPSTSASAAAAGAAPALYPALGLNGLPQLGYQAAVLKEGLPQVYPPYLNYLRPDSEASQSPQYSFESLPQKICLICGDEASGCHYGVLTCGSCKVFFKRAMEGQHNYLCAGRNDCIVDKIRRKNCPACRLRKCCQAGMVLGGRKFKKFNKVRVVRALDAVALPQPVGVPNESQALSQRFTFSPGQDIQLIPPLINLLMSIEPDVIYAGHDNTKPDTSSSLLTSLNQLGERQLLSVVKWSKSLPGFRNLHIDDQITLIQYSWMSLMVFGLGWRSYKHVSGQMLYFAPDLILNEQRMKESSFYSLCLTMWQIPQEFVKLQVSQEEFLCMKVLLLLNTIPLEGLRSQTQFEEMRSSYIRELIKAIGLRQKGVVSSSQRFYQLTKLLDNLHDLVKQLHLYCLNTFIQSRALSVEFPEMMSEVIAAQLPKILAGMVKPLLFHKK
Description: (§1) CV-1 cells (African green monkey kidney fibroblasts) were cultured in the presence of Dulbecco's Modified Eagle Medium (DMEM) supplemented with 10% charcoal resin-stripped fetal bovine serum (CH-FBS) then transferred to 96-well microtiter plates one day prior to transfection.
(§2) Three to four replicates were used for each sample.
(§3) After 40 hours, the cells were washed with PBS, lysed with a Triton X-100-based buffer and assayed for LUC and β-Gal activities using a luminometer or spectrophotometer, respectively. For each replicate, the normalized response (NR) was calculated as: LUC response/β-Gal rate • where β-Gal rate=β-Gal/β-Gal incubation time.

GR = biological target: T2, GR (Homo sapiens, UniProt P04150); experiment: co-transfection assay, GR
T2 construct: expressed in transfected cells; host or cells: background cell substantially devoid of endogenous IRs (CV-1 described for the co-transfection assay)
T2 sequence (P04150 1-777): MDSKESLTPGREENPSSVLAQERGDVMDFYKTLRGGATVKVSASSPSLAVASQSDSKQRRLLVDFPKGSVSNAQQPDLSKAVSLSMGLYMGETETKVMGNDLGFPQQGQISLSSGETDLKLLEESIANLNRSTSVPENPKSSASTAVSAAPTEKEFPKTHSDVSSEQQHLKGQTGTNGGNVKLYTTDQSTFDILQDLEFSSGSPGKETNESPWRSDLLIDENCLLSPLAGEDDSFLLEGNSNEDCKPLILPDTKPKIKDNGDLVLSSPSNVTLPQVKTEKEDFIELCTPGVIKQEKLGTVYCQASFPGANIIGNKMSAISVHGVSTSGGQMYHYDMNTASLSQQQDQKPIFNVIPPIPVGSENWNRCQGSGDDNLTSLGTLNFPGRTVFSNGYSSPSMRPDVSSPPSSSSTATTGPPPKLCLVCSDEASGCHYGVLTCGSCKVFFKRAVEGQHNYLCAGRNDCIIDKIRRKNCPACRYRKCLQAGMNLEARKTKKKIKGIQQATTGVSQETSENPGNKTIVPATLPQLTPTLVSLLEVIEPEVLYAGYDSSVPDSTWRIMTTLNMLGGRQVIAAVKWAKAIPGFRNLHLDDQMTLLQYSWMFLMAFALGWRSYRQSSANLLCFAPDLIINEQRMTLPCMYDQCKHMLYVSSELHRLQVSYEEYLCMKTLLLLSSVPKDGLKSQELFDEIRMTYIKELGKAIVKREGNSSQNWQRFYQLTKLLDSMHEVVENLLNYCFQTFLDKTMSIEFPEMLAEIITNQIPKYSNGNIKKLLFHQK
Description: as §1, §2, §3

MR = biological target: T3, MR (Homo sapiens, UniProt P08235); experiment: co-transfection assay, MR
T3 construct: expressed in transfected cells; host or cells: background cell substantially devoid of endogenous IRs (CV-1 described for the co-transfection assay)
T3 sequence (P08235 1-984): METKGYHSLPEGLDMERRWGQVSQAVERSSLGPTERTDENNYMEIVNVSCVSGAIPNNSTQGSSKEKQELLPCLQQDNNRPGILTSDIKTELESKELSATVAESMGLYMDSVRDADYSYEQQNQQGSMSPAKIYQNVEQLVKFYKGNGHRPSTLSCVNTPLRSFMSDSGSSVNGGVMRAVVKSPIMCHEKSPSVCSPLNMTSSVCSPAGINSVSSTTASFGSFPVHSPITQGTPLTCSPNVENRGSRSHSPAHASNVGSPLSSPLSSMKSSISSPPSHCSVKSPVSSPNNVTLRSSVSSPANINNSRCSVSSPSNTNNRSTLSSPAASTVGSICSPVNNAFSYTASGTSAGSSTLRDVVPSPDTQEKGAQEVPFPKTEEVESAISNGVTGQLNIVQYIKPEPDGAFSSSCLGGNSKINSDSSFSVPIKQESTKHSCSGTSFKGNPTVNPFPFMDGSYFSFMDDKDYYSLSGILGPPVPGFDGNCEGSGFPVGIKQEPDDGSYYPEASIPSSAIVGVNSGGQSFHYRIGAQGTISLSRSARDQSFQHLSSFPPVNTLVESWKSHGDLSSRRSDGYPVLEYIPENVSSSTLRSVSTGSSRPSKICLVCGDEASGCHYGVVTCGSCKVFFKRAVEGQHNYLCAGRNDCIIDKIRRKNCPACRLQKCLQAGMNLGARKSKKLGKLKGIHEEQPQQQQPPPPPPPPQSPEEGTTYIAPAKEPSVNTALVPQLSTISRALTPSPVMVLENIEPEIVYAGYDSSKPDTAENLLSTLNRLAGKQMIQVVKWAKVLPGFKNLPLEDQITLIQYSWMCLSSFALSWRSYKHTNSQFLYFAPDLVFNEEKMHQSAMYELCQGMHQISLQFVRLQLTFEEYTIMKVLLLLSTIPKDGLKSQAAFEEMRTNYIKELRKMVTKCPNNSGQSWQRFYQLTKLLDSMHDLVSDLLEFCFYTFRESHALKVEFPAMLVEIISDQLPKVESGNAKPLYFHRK
Description: as §1, §2, §3

SMILES | EC50 (PR) [µM] | IC50 (GR) [µM] | IC50 (MR) [µM]
C=CCN1c2ccc3[nH]c(=O)cc(C(F)(F)F)c3c2OC[C@H]1CC [Compound 114, (3R)-4-Allyl-3-ethyl-2,3,4,7-tetrahydro-10-(trifluoromethyl)-8H-[1,4]oxazino[2,3-f]quinolin-8-one] | > 10 | 5.9 | > 10
CC[C@@H]1COc2c(ccc3[nH]c(=O)cc(C(F)(F)F)c23)N1CC(F)(F)F [Compound 110, (3R)-3-Ethyl-2,3,4,7-tetrahydro-4-(2,2,2-trifluoroethyl)-10-(trifluoromethyl)-8H-[1,4]oxazino[2,3-f]quinolin-8-one] | > 10 |  | 1.27
CC(C)[C@@H]1COc2c(ccc3[nH]c(=O)cc(C(F)(F)F)c23)N1CC(F)(F)Cl [Compound 124, (3R)-4-(2-Chloro-2,2-difluoroethyl)-2,3,4,7-tetrahydro-3-isopropyl-10-(trifluoromethyl)-8H-[1,4]oxazino[2,3-f]quinolin-8-one] | > 10 | 2.4 | > 10
